Test results from patent US9096591B2, “Tetracyclic compounds” (Medivation Technologies, Inc., priority 2007, dated 2015).

Columns and labels:
[1] = molecular target: T1, human recombinant histamine H1 receptor (Homo sapiens, UniProt P35367); assay: Histamine H1 radioligand binding ([3H]Pyrilamine); conditions: […] [3H]Pyrilamine, read-out: Histamine Binding H1, percent inhibition of specific binding
T1 construct: expressed in transfected cells; host or cells: CHO cells
Protocol: To evaluate in radioligand binding assays the activity of compounds of the invention, human recombinant histamine H1 receptor expressed in Chinese hamster ovary (CHO) cells (De Backer M D et al. Biochem. Biophys. Res Comm. 197(3):1601, 1993) in a modified Tris-HCl buffer (50 mM Tris-HCl, pH 7.4, 2 mM MgCl2, 100 mM NaCl, 250 mM Sucrose) were used. […] Non-specific binding was estimated in the presence of 1 μM pyrilamine. Receptor proteins were filtered and washed, the filters were then counted to determine [^3H]pyrilamine specifically bound. […] Biochemical assay results are presented as the percent inhibition of specific binding in Table 5.
To evaluate in radioligand binding assays the activity of compounds of the invention, human recombinant histamine H1 receptor expressed in Chinese hamster ovary (CHO) cells (De Backer, M. D. et al., Biochem. Biophys. Res. Comm. 197(3):1601, 1993) in a modified Tris-HCl buffer (50 mM Tris-HCl, pH 7.4, 2 mM MgCl2, 100 mM NaCl, 250 mM Sucrose) was used. […] Non-specific binding was estimated in the presence of 1 μM pyrilamine. Receptor proteins were filtered and washed, the filters were then counted to determine [^3H]Pyrilamine specifically bound. Compounds were screened at 1 μM, using 1% DMSO as vehicle. Biochemical assay results are presented as the percent inhibition of specific binding in Table 6.

[2] = molecular target: T2, human recombinant histamine H2 receptor (Homo sapiens, UniProt P25021); assay: Histamine H2 radioligand binding ([125I]Aminopotentidine); conditions: 0.3 μM compound; 0.1 nM [125I]Aminopotentidine; read-out: Histamine Binding H2, percent inhibition of specific binding
T2 construct: expressed in transfected cells; host or cells: CHO-K1 cells
Protocol: Non-specific binding was estimated in the presence of 3 μM Tiotidine. […] Biochemical assay results are presented as the percent inhibition of specific binding in Table 5.
Non-specific binding was estimated in the presence of 3 μM Tiotidine. […] Compounds were screened at 1 μM, using 1% DMSO as vehicle. Biochemical assay results are presented as the percent inhibition of specific binding in Table 6.

[3] = test system: adrenergic receptors α1D, α2A, α2B; serotonin receptor 5-HT6; dopamine receptor D2L; assay: Classification of compounds (Type 1-4) from receptor binding and neurite outgrowth
From the text: Compounds of the invention that inhibit binding of a ligand to adrenergic receptors α1D, α2A, α2B and serotonin receptor 5-HT6 by at least about 80% as determined in a suitable assay such as the assays described herein can be classified as Type 1 compounds. […] In one variation, binding of a ligand to serotonin receptor 5-HT7 is at least about 80%. […] Weak inhibition of binding of a ligand to the histamine H1 receptor is permitted as agonists of this receptor have been implicated in stimulating memory as well as weight gain. In one variation, binding to histamine receptor H1 is inhibited by less than about 80%. […] Compounds that inhibit binding of a ligand to the dopamine D2L receptor by at least about 80% as determined in a suitable assay such as the assay described herein can be classified as Type 2 compounds.
In one variation, Type 1 compounds further inhibit binding of a ligand to dopamine receptor D2L by less than about 80% as determined in a suitable assay known in the art such as the assay described herein. […] In one variation, binding of a ligand to serotonin receptor 5-HT7, 5-HT2A and/or 5-HT2C is inhibited by at least about 80% as determined in a suitable assay such as the assays described herein. […] In one variation, binding of a ligand to histamine receptor H1 and/or H2 is inhibited by less than about 80% as determined by a suitable assay known in the art such as the assays described herein.
In one variation, biding to serotonin receptor 5-HT2A is inhibited by at least about 80% as determined in a suitable assay know in the art such as the assay described herein.

[4] = test system: synaptosomes of cortex of rat brain; assay: Glutamate-induced 45Ca2+ uptake into synaptosomes; assay type: biochemical, Wistar rats; conditions: for % Ca of control (control-100%), glutamate-induced 45Ca2+ uptake into synaptosomes: rat cortex synaptosomes
Protocol: Synaptosomes were obtained from cerebral cortex of newborn (9-10 days) Wistar rats using standard Hajos method. The brain was homogenized with 10 volumes of cooled 0.32 M sucrose at 900 rpm. The homogenate was centrifuged at 1500 g for 10 min. and the resulted supernatant was centrifuged at 10000 g for 20 min. The radioactive label was accumulated by suspension of the synaptosomal P2-fraction in the incubation buffer A having the following composition: 132 mM NaCl, 5 mM KCl, 5 mM HEPES, 10 mM glucose, pH 7.4 (protein concentration of approximately 1.5-2 mg/ml). The mixture was further incubated for 5 min with 200 μM glutamate at 37° C. and then ^45Ca^2+ uptake was stopped by filtration through GF/B filters (Whatman, England) followed by three washes with cold buffer B (145 mM KCl, 10 mM Tris, 5.4 mM Trilon B, pH 7.4). The radioactivity probes were analyzed by fluid scintillation beta-analyzer (TriCarb, Perkin Elmer). All tests were performed in three parallel trials in 2-3 independent experiments. The amount of ^45Ca^2+ uptake was estimated by calculating the difference of radioactive label during the stimulation with glutamate and without the stimulation with agonist.
Specific ^45Ca^2+ uptake was estimated using the following equation: K(43/21)=[(Ca4−Ca3)/(Ca2−Ca1)]100%, where
Ca1—^45Ca^2+ uptake for the Control (without glutamate and the compound tested),
[…] glutamate-induced ^45Ca^2+ uptake (glutamate only),
Ca3—^45Ca^2+ uptake in the presence of the compound tested (without glutamate),
Ca4—^45Ca^2+ uptake in the presence of glutamate and the testing compound.
Statistical analysis of the results was performed using Student's t-test.

mice = assay: recognition test of new location of a known object (spatial memory); assay type: in vivo

T1 sequence (P35367 whole entry): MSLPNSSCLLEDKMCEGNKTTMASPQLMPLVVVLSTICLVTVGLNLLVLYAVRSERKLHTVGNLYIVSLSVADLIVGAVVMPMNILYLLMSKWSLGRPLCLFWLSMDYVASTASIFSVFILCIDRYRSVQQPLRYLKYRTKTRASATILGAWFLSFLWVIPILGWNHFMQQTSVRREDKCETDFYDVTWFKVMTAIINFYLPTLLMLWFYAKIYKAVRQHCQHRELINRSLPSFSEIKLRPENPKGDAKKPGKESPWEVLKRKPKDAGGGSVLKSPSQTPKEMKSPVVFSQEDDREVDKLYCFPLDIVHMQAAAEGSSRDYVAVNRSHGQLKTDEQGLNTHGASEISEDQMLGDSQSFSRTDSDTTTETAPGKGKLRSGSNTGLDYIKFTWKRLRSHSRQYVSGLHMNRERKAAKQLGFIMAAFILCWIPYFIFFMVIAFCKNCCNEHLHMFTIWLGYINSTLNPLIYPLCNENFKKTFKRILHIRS
T2 sequence (P25021 whole entry): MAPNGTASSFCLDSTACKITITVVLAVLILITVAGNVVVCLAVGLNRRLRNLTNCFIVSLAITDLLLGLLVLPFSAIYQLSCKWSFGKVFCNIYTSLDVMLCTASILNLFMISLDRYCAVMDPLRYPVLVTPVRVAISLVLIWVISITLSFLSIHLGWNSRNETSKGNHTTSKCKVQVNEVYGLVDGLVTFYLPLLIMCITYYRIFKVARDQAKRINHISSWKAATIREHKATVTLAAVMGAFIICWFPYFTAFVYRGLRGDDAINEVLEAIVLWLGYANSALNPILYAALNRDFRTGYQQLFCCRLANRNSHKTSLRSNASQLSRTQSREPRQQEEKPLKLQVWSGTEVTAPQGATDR

SMILES: CCN1CCc2c(c3cc(C)ccc3n2CC(O)c2ccc(C)cc2)C1 (racemic) [Compound 29, racemic-2-(2-ethyl-1,2,3,4-tetrahydro-8-methylpyrido[4,3-b]indol-5-yl)-1-p-tolylethanol]
- inhibition at 0.03 µM ([1]; 0.03 μM compound): 37%
- inhibition at 0.1 µM ([1]; 0.1 μM compound): 57%
- inhibition at 0.3 µM [2]: 27%
- compound type (classification by receptor binding profile and neurite outgrowth) [3]: Type one

SMILES: CN1CCc2c(c3cc(F)ccc3n2CCc2noc(-c3ccccc3)n2)C1 [Compound C4-7]
- concentration at which glutamate-induced 45Ca2+ uptake into synaptosomes was not affected [4]: 0.1 to 10 µM
- glutamate-induced 45Ca2+ uptake into synaptosomes of rat cortex, % of control ([4]; 50-100 μM): ~128%
- % Ca of control (control-100%), glutamate-induced 45Ca2+ uptake into synaptosomes ([4]; compound 0.1 μM): 97.2 ± 5.5%
- % Ca of control (control-100%), glutamate-induced 45Ca2+ uptake into synaptosomes ([4]; compound 0.5 μM): 87.6 ± 3.9%
- % Ca of control (control-100%), glutamate-induced 45Ca2+ uptake into synaptosomes ([4]; compound 1 μM): 105.3 ± 2.8%
- % Ca of control (control-100%), glutamate-induced 45Ca2+ uptake into synaptosomes ([4]; compound 5 μM): 109.2 ± 10%
- % Ca of control (control-100%), glutamate-induced 45Ca2+ uptake into synaptosomes ([4]; compound 10 μM): 101.6 ± 7.8%
- % Ca of control (control-100%), glutamate-induced 45Ca2+ uptake into synaptosomes ([4]; compound 50 μM): 128.3 ± 8.1%
- % Ca of control (control-100%), glutamate-induced 45Ca2+ uptake into synaptosomes ([4]; compound 100 μM): 123.6 ± 4.9%
- Influence on memory in the test recognition new localization of known object (mice; Dose of Compound 0.05 mg/kg): −
- Influence on memory in the test recognition new localization of known object (mice; Dose of Compound 0.1 mg/kg): +
- Influence on memory in the test recognition new localization of known object (mice; Dose of Compound 0.5 mg/kg): −
- Influence on memory in the test recognition new localization of known object (mice; Dose of Compound 1.0 mg/kg): −
- effect of the dose on exploration time / memory (in words) (mice; mice, dose 0.05 mg/kg): not effective
- time exploring the object in a new location, % of the total time (mice; mice, dose 0.1 mg/kg): 63.4±10.4%
- time exploring the object in the known position, % of the total time (mice; mice, dose 0.1 mg/kg): 36.6±10.4%
- effect of the dose on exploration time / memory (in words) (mice; mice, dose 0.5 mg/kg): not effective
- effect of the dose on exploration time / memory (in words) (mice; mice, dose 1 mg/kg): not effective
- overall effect on memory (in words) (mice; mice, doses 0.05-1 mg/kg): stimulated memory

SMILES: CN1CCc2c(c3ccccc3n2CCc2noc(-c3ccccc3)n2)C1 [Compound G6-a, 2-Methyl-5-[2-(5-phenyl-1,2,4-oxadiazol-3-yl)ethyl]-2,3,4,5-tetrahydro-1H-pyrido[4,3-b]indole]
- melting point: 111 to 112 °C

SMILES: COc1ccc2c(c1)c1c(n2CCc2noc(-c3ccccc3)n2)CCN(C)C1 [Compound G6-b, 8-Methoxy-2-methyl-5-[2-(5-phenyl-1,2,4-oxadiazol-3-yl)ethyl]-2,3,4,5-tetrahydro-1H-pyrido[4,3-b]indole]
- melting point: 77.5 to 79 °C

SMILES: Cc1ccc2c(c1)c1c(n2CCc2noc(-c3ccccc3)n2)CCN(C)C1 [Compound G6-c, 2,8-Dimethyl-5-[2-(5-phenyl-1,2,4-oxadiazol-3-yl)ethyl]-2,3,4,5-tetrahydro-1H-pyrido[4,3-b]-indole]
- melting point: 120 to 120.5 °C

SMILES: CN1CCc2c(c3cc(Cl)ccc3n2CCc2noc(-c3ccccc3)n2)C1 [Compound G6-d, 8-Chloro-2-methyl-5-[2-(5-phenyl-1,2,4-oxadiazol-3-yl)ethyl]-2,3,4,5-tetrahydro-1H-pyrido-[4,3-b]indole]
- melting point: 122 to 123 °C

SMILES: CN1CCc2c(c3cc(F)ccc3n2CCc2noc(-c3ccccc3)n2)C1 [Compound G6-f, 8-Fluoro-2-methyl-5-[2-(5-phenyl-1,2,4-oxadiazol-3-yl)ethyl]-2,3,4,5-tetrahydro-1H-pyrido-[4,3-b]indole]
- melting point: 121.5 to 122.5 °C

SMILES: COc1ccc2c(c1)c1c(n2CCc2nc(-c3ccccc3)cs2)CCN(C)C1 [Compound G8-b, 8-Methoxy-2-methyl-5-[2-(4-phenylthiazol-2-yl)ethyl]-2,3,4,5-tetrahydro-1H-pyrido[4,3-b]indole]
- melting point: 135 to 136.5 °C

SMILES: Cc1ccc2c(c1)c1c(n2CCc2nc(-c3ccccc3)cs2)CCN(C)C1 [Compound G8-c, 2,8-Dimethyl-5-[2-(4-phenylthiazol-2-yl)ethyl]-2,3,4,5-tetrahydro-1H-pyrido[4,3-b]indole]
- melting point: 148.5 to 149 °C

SMILES: CN1CCc2c(c3cc(F)ccc3n2CCc2nc(-c3ccccc3)cs2)C1 [Compound G8-f, 8-Fluoro-2-methyl-5-[2-(4-phenylthiazol-2-yl)ethyl]-2,3,4,5-tetrahydro-1H-pyrido[4,3-b]indole]
- melting point: 136.5 to 137 °C

SMILES: CN1CCc2c(c3cc(Cl)ccc3n2CCc2n[nH]c(=S)n2C)C1 [Compound G11-b, 5-[2-(8-Chloro-2-methyl-2,3,4,5-tetrahydro-1H-pyrido[4,3-b]indol-5-yl)ethyl]-4-methyl-2,4-dihydro-1,2,4-triazole-3-thione]
- melting point: 216 to 219 °C

SMILES: CN1CCc2c(c3cc(F)ccc3n2CCc2n[nH]c(=S)n2C)C1 [Compound G11-c, 5-[2-(8-Fluoro-2-methyl-2,3,4,5-tetrahydro-1H-pyrido[4,3-b]indol-5-yl)ethyl]-4-methyl-2,4-dihydro-1,2,4-triazole-3-thione]
- melting point: 215 to 218 °C

SMILES: COc1ccc2c(c1)c1c(n2CCc2n[nH]c(=S)n2C)CCN(C)C1 [Compound G11-d, 5-[2-(8-Methoxy-2-methyl-2,3,4,5-tetrahydro-1H-pyrido[4,3-b]indol-5-yl)ethyl]-4-methyl-2,4-dihydro-1,2,4-triazole-3-thione]
- melting point: 219 to 222 °C
